Columns and labels:
[1] = Pharmacokinetic analysis in serum (LC-MS/MS, non-compartmental)
[2] = system: SKMEL28 melanoma cell lines; set-up: method as in PMID 31874374; details: intermittently administered; ref [19]; cited from earlier work

Row | accumulation ([1]; during three days of dosing and repeated three-day courses) | average terminal half-life ([1]; from 8h serum concentration curves, likely an underestimation) [h] | time to maximum serum concentration after oral intake ([1]; overall) | Compound | effect of treatment interruptions on tumor growth [2]
1 | little to no accumulation | 4.3 | approximately 1.7 hours | O=C(NOCCO)c1cc2nc[nH]c2c(F)c1Nc1ccc(Br)cc1Cl [N-desmethyl-selumetinib] | –
2 | – | – | – | O=C(c1ccc(F)c(F)c1Nc1ccc(I)cc1F)N1CC(O)([C@@H]2CCCCN2)C1 [cobimetinib] | Treatment interruptions resulted in tumor regrowth that could not be compensated when drug administration was resumed

Source: PMC9557946, “Intermittent MEK inhibition for the treatment of metastatic uveal melanoma” (Frontiers in Oncology, 2022)
